Laboratory results taken from patent publication US20230383292A1, “TARGETING XIST AND RNA METHYLATION FOR X REACTIVATION THERAPY” (The General Hospital Corporation, priority 2020, published 2023).

System: human XIST transcript
Test: XIST knock down by XIST ASOs (Table 1)
Format: cell-based
Design: ASO conc at max KD: unit not given here
Details: for % Max KD: XIST knock down, cells treated for 72 hrs with XIST ASO; for ASO conc at max KD: concentration of XIST ASO giving max KD, 72 hrs
Excerpt: The methods include administering an inhibitor of an XIST RNA itself, e.g., an inhibitory nucleic acid targeting XIST RNA. Although in typical usage XIST refers to the human sequence and XIST to the mouse sequence, in the present application the terms are used interchangeably. The human XIST sequence is available in the ensemble database at ENSG00000229807; it is present on Chromosome X at 73,820,651-73,852,753 reverse strand (Human GRCh38.p2). The sequences of exons 1-6 are shown in SEQ ID NOs:73-79 (see FIG. 2); XIST exons correspond to 601-11972 (exon 1); 15851-15914 (exon 2); 19593-20116 (exon 3); 21957-21984 (exon 4); 22080-22288 (exon 5); and 23887-33304 (exon 6). […] The inhibitory nucleic acid targeting XIST RNA can be any inhibitory nucleic acid as described herein, and can include modifications described herein or known in the art. In some embodiments, the inhibitory nucleic acid is an antisense oligonucleotide (ASO) that targets a sequence in XIST RNA, e.g., a sequence within an XIST exon as shown in SEQ ID NO:1-45 or within the RNA sequence as set forth in NR_001564.2, preferably wherein the ASO comprises a sequence as shown in Table 1. In some embodiments, the inhibitory nucleic includes at least one locked nucleotide, e.g., is a locked nucleic acid (LNA). Table 1 provides a list of ASOs that have more than 80% XIST knock down when cells are treated for 72 hrs with the below XIST ASOs.

Substance | % Max KD | ASO conc at max KD
ASO 6A: XIST antisense oligonucleotide TATGGCCCACAGTCTAAAGT, SEQ ID NO 1 (listed as DNA, chemistry not given here) | 99.3% | 20
ASO 4B: XIST antisense oligonucleotide CCAGGAAAGTATCTTGACAG, SEQ ID NO 32 (listed as DNA, chemistry not given here) | 88% | 100
ASO 6Q: XIST antisense oligonucleotide TCAGAAGTCTGGCACATCTG, SEQ ID NO 5 (listed as DNA, chemistry not given here) | 99% | 100
ASO 1U: XIST antisense oligonucleotide CTTACAACTGTGCACCTTGA, SEQ ID NO 15 (listed as DNA, chemistry not given here) | 96% | 100
ASO 1W: XIST antisense oligonucleotide CTTAAGTAGTAGGTACTTCC, SEQ ID NO 3 (listed as DNA, chemistry not given here) | 99% | 20
ASO 6U: XIST antisense oligonucleotide CTTTGTCCCAGGCACAGTCA, SEQ ID NO 13 (listed as DNA, chemistry not given here) | 97% | 20
ASO 1F: XIST antisense oligonucleotide TTTAGCTCATGCAATGCACA, SEQ ID NO 9 (listed as DNA, chemistry not given here) | 98% | 20
ASO 1R: XIST antisense oligonucleotide CTGTGACTACAGAAGCAATG, SEQ ID NO 22 (listed as DNA, chemistry not given here) | 94% | 100
ASO 1S: XIST antisense oligonucleotide CAGAAACCCAAGTCTAATTG, SEQ ID NO 23 (listed as DNA, chemistry not given here) | 94% | 20
ASO 1D: XIST antisense oligonucleotide TCAGACTGTATGACTGACAT, SEQ ID NO 8 (listed as DNA, chemistry not given here) | 98% | 20
ASO 6E: XIST antisense oligonucleotide AGTTCAGGCTGTCCCCTTGG, SEQ ID NO 26 (LNA gapmer with DNA gap, wing lengths and linkages not given here) | 92% | 20
ASO 1C: XIST antisense oligonucleotide TGAGGCACCAATACAGAGGA, SEQ ID NO 18 (listed as DNA, chemistry not given here) | 95% | 20
ASO 6C: XIST antisense oligonucleotide TTGGCCTTGTGTCACAAGTC, SEQ ID NO 12 (listed as DNA, chemistry not given here) | 97% | 20
ASO 1B: XIST antisense oligonucleotide GCCTGCCATATTGTCCCTGC, SEQ ID NO 14 (listed as DNA, chemistry not given here) | 96% | 20
ASO 1V: XIST antisense oligonucleotide AGGACCTTATTCACATGGAA, SEQ ID NO 10 (listed as DNA, chemistry not given here) | 98% | 20
ASO 4A: XIST antisense oligonucleotide GGTTGTTGCCCAGTGGTAGT, SEQ ID NO 35 (listed as DNA, chemistry not given here) | 84% | 20
ASO 3P: XIST antisense oligonucleotide TAGATTAGCTGGAGCTTGGC, SEQ ID NO 4 (listed as DNA, chemistry not given here) | 99% | 100
